# Measured values: patent US5753614A, “Nisin compositions for use as enhanced, broad range bactericides” (AMBI Inc., priority 1995, dated 1998)
# Experiments:
# [1] = test system: Listeria monocytogenes; experiment: Bactericidal activity towards Listeria monocytogenes in Tris buffer; assay type: cell-based; settings: L. monocytogenes
# Procedure: (§1) All tests in the following examples were performed at 37° C. The efficacy of the enhanced broad range bactericides was determined by assaying bactericidal activity as measured by the percent bacterial survival after treatment with the bactericide. Generally, after incubation of a 10^7 cell per ml suspension of target species with the novel bactericide for specified lengths of time, bacteria were collected by centrifugation for 2 minutes. The bacterial pellet was washed free of the bactericide with a rescue buffer, termed herein Phage buffer (50 mM Tris-HCl buffer pH 7.8, 1 mM MgSO4, 4 mM CaCl2, 0.1M Nacl, and 0.1% gelatin), resuspended and serially diluted into Phage buffer, and 100 μl of the suspended bacteria were spread on nutrient agar plates. Surviving bacteria were determined by scoring colony forming units (CFU) after incubation for 24-48 hours at 37° C.
# (§2) Incubations were performed in 20 mM TrisHCl, pH 8.0 at 37° C.
# [2] = test system: S. typhimurium; experiment: Bactericidal activity, percent survival of S. typhimurium suspension; assay type: cell-based, Salmonella typhimurium; settings: for % Survival at 2 hours: S. typhimurium
# Procedure: as §1
# The control (Test #1) is identical to the control of Example 1 (Table 1).
# [3] = test system: E. coli; experiment: Bactericidal activity, percent survival of E. coli at 2 hours; assay type: cell-based, Escherichia coli; settings: for Percentage E. coli Survival at 2 hours: Tris pH 8.0
# Procedure: as §1
# The effects of the bactericide were measured as a function of percentage bacteria survival after 2 hours.
# [4] = test system: Staphylococcus aureus; experiment: Bactericidal activity towards Staphylococcus aureus, influence of pH and EDTA; assay type: cell-based; settings: S. aureus
# Procedure: as §1
# Incubations were performed in 50 mM sodium acetate buffer, pH 5.0 or 20 m
# TrisHCl buffer, pH 8.0 at 37° C.
# [5] = test system: Escherichia coli; experiment: Rapid bactericidal activity towards Escherichia coli (1 min); assay type: cell-based; settings: E. coli; EDTA 1.0 mM, nisin 0; 20 mM Tris pH 7.0
# Procedure: as §1
# Incubations were performed in 20 mM Tris, pH 7.0 at 37° C.
# [6] = test system: K. pneumoniae; experiment: Bactericidal activity, percent survival of K. pneumoniae; assay type: cell-based, Klebsiella pneumoniae
# Procedure: as §1
# The effect was measured as a function of percentage bacterial survival after 2 hours.
# [7] = test system: S. typhimurium on chicken muscle; experiment: Bactericidal activity towards S. typhimurium on chicken muscle (unadhered cells); assay type: cell-based, Salmonella typhimurium
# Procedure: Incubations were performed in either 50 mM sodium acetate, pH 5.0, or 20 mM Tris, pH 8.0 at 37° C.
# Cubes of chicken muscle were cleansed with sodium hypochlorite and povidone iodine prior to use. To inoculate the tissue, the cubes of chicken muscle were dipped into a 10^8 cells/ml suspension of S. typhimurium in 20 mM Tris HCl, pH 8.0. Excess moisture was removed from dipped cubes by tapping. The chicken samples were placed into sufficient buffer containing the nisin composition to cover the tissue and incubated for 2 hours at 37° C. after which the tissue was removed to sufficient Phage buffer to cover the tissue. The bacteria remaining in the test solution were collected by centrifugation, washed with Phage buffer, and combined with bacteria washed from the tissue by Phage buffer. The combined samples (termed "unadhered" cells) were serially diluted and 100 μl aliquots were plated for determination of surviving bacteria.
# (§3) Cubes of chicken muscle were cleansed with sodium hypochlorite and povidone iodine prior to use. To inoculate the tissue, the cubes of chicken muscle were dipped into a 10^8 cells/ml suspension of S. typhimurium in 20 mM Tris HCl, pH 8.0. Excess moisture was removed from dipped cubes by tapping. The tissue was placed into sufficient buffer containing the nisin compositions to cover the tissue, and incubated for 2 hours at 37° C. after which the tissue was removed to sufficient Phage buffer to cover the tissue. The bacteria remaining in the test solution were collected by centrifugation, washed with Phage buffer, and combined with bacteria washed from the tissue by Phage buffer. The combined samples (termed "unadhered" cells) were serially diluted and 100 μl aliquots were plated for determination of surviving bacteria.
# as §3, with “cleaned” for “cleansed”, “50” for “20”, “sodium acetate buffer,” for “Tris HCl,”, “5.0.” for “8.0.”, “containing” for “containing the”
# [8] = test system: Coryneform bacteria; experiment: Bactericidal activity towards Coryneform bacteria; assay type: cell-based, mixed population of axillary Coryneform bacteria
# Procedure: as §1, §2
# [9] = test system: Streptococcus mutans; experiment: Kinetics of bactericidal activity towards Streptococcus mutans; assay type: cell-based; settings: S. mutans, nisin 0 with 1.0 mM EDTA, pH 7.3
# Procedure: The suspensions were incubated for various times ranging from 0.5 to 60 minutes with the bactericides. The bactericidal efficacy of the bactericides was estimated by determining the percent survival of bacteria.
# Incubations were performed in 20 mM TrisHCl, pH 7.3 at 37° C.
# [10] = test system: Streptococcus agalactiae; experiment: Bactericidal activity towards Streptococcus agalactiae in milk; assay type: cell-based; settings: S. agalactiae in milk
# Procedure: as §1
# However, the combination of the two agents, 0.1% monolaurin and nisin 0.2 μg/ml, is extremely potent towards S. agalactiae. […] Thus, when the application of nisin is limited by its available activity, a bactericide comprising nisin with a surfactant can be expected to be more useful.
# (§4) Incubations were in milk at 37° C.
# [11] = test system: Streptococcus mutans; experiment: Bactericidal activity towards Streptococcus mutans at 2 hr; assay type: cell-based; settings: S. mutans; nisin 0.1 μg/ml, EDTA 0; 20 mM TrisHCl pH 8.0
# Procedure: as §1, §2
# [12] = test system: Listeria monocytogenes; experiment: Bactericidal activity towards Listeria monocytogenes in milk; assay type: cell-based; settings: for % Survival 2 hr: L. monocytogenes in milk
# Procedure: as §1
# An example of where the application of nisin is limited by its available activity is illustrated by the data in Table 15B.
# as §4
# [13] = nisin 3.0 μg/ml, EDTA 0, pH 8.0
compound,measurement,setting,value
O=C([O-])CN(CCN(CC(=O)[O-])CC(=O)O)CC(=O)O.[Na+].[Na+] [EDTA],% Survival after 2 hr,"[1]; EDTA 1.0 mM, nisin 0, 20 mM TrisHCl pH 8.0",84%
same,Percentage S. typhimurium Survival at 3 hours,"[2]; EDTA 20 mM, nisin 0, 20 mM Tris pH 8.0",2.5%
same,% Survival at 2 hours,"[2]; EDTA 1.0 mM, BSA 1.0%, nisin 0, 20 mM Tris pH 8.0",63%
same,% Survival at 2 hours,"[2]; EDTA 2.0 mM, nisin 0, 20 mM Tris pH 8.0",8.7%
same,% Survival at 2 hours,"[2]; EDTA 2.0 mM, nisin 0, 50 mM sodium acetate pH 5.0",38.7%
same,% Survival at 2 hours,"[2]; EDTA 10 mM, nisin 0, pH 5.0",15.2%
same,% Survival at 2 hours,"[2]; EDTA 10 mM, nisin 0, pH 8.0",14%
same,% Survival at 2 hours,"[2]; EDTA 50 mM, nisin 0, pH 5.0",3.5%
same,% Survival at 2 hours,"[2]; EDTA 50 mM, nisin 0, pH 8.0",11.4%
same,% Survival at 2 hours,"[2]; EDTA 100 mM, nisin 0, pH 8.0",45%
same,Percentage E. coli Survival at 2 hours,"[3]; EDTA 20 mM, nisin 0",14.5%
same,% Survival 2 hr,"[4]; EDTA 0.3 mM, nisin 0, pH 8.0",100%
same,% Survival 2 hr,"[4]; EDTA 1.0 mM, nisin 0, pH 8.0",81%
same,% Survival 2 hr,"[4]; EDTA 3.0 mM, nisin 0, pH 5.0",100%
same,% Survival 2 hr,"[4]; EDTA 3.0 mM, nisin 0, pH 8.0",100%
same,% Survival 2 hr,"[4]; EDTA 10 mM, nisin 0, pH 8.0",100%
same,% Survival 2 hr,"[4]; EDTA 30 mM, nisin 0, pH 8.0",100%
same,% survival at 1 min,[5],100%
same,% Survival at 2 hours,"[6]; EDTA 20 mM, nisin 0, Tris pH 8.0",22%
same,% Survival at 2 hours,"[7]; EDTA 1.0 mM, BSA 1.0%, nisin 0, pH 8.0",27%
same,% Survival at 2 hours (Unadhered cells),"[7]; EDTA 10 mM, nisin 0, methyl paraben 0, 50 mM Na acetate pH 5.0 (Table 10)",11.8%
same,% Survival at 2 hours (Unadhered cells),"[7]; EDTA 10 mM, nisin 0, pH 5.0 (Table 7)",6.4%
same,% Survival at 2 hours (Unadhered cells),"[7]; EDTA 10 mM, nisin 0, pH 8.0",5.2%
same,% Survival 2 hr,"[8]; EDTA 0.3 mM, nisin 0, 20 mM TrisHCl pH 8.0",4.6%
same,% Survival 2 hr,"[8]; EDTA 1.0 mM, nisin 0, pH 8.0",3.6%
same,% Survival 2 hr,"[8]; EDTA 3.0 mM, nisin 0, pH 8.0",8%
same,% Survival 2 hr,"[8]; EDTA 10 mM, nisin 0, pH 8.0",36%
same,% Survival,[9]; 3 min,100%
same,% Survival,[9]; 60 min,100%
Triton X-100,Percentage S. typhimurium Survival at 3 hours,"[2]; Triton X-100 1.0%, nisin 0, EDTA 0, Tris pH 8.0",37.4%
same,Percentage E. coli Survival at 2 hours,"[3]; Triton X-100 1.0%, nisin 0, EDTA 0",100%
same,bactericidal activity towards E. coli (in words),"[3]; Triton X-100 1.0%, tests #3 and #4",no significant bactericidal activity
"CCCCCCCCCCCC(=O)OCC(O)CO (stereo not shown) [Monolaurin, monolaurin]",% survival at 2 h,"[10]; monolaurin 0.01%, nisin 0",100%
same,% survival at 2 h,"[10]; monolaurin 0.1%, nisin 0",4.5%
Nisin,% Survival after 2 hr,[11],4.3%
same,% Survival after 2 hr,[1]; [13],0.71%
same,% Survival at 2 hours,"[2]; nisin 10 ug/ml, EDTA 0, BSA 0 (Table 8)",51.3%
same,% Survival at 2 hours,"[2]; nisin 100 ug/ml, EDTA 0, BSA 0 (Table 8)",1.6%
same,% Survival at 2 hours,"[2]; nisin 100 μg/ml, EDTA 0, pH 5.0",0.6%
same,% Survival at 2 hours,"[2]; nisin 100 μg/ml, EDTA 0, pH 8.0 (Table 6)",4%
same,Percentage S. typhimurium Survival at 3 hours,"[2]; nisin 50 μg/ml, EDTA 0, 20 mM Tris pH 8.0",7.0%
same,Percentage S. typhimurium Survival at 3 hours,"[2]; nisin 100 μg/ml, EDTA 0, 20 mM Tris pH 8.0",1.6%
same,Percentage E. coli Survival at 2 hours,"[3]; nisin 100 μg/ml, EDTA 0, Triton X-100 0",25%
same,Percentage E. coli Survival at 2 hours,"[3]; nisin 300 μg/ml, EDTA 0, Triton X-100 0",8.5%
same,% Survival 2 hr,"[4]; nisin 3.0 μg/ml, EDTA 0, pH 5.0",0.6%
same,% Survival 2 hr,[4]; [13],7.4%
same,% Survival at 2 hours,"[6]; nisin 100 μg/ml, EDTA 0, 20 mM Tris pH 8.0, 37°C",50%
same,% Survival at 2 hours,"[6]; nisin 300 μg/ml, EDTA 0, Tris pH 8.0",38%
same,% Survival at 2 hours (Unadhered cells),"[7]; nisin 300 ug/ml, 1% BSA, EDTA 0, pH 8.0",0.02%
same,% Survival at 2 hours (Unadhered cells),"[7]; nisin 300 ug/ml, EDTA 0, pH 5.0",0.1%
same,% Survival at 2 hours (Unadhered cells),"[7]; nisin 300 ug/ml, EDTA 0, pH 8.0",7.5%
same,% Survival 2 hr,"[8]; nisin 3 ug/ml, EDTA 0, pH 8.0",0.22%
same,% Survival 2 hr,"[12]; nisin 100 μg/ml, monooleate 0",0.56%
same,% survival at 2 h,"[10]; nisin 0.02 μg/ml, monolaurin 0",100%
same,% survival at 2 h,"[10]; nisin 0.2 μg/ml, monolaurin 0",2.2%
monooleate,% Survival 2 hr,"[12]; monooleate 0.1%, nisin 0",67%
same,% Survival 2 hr,"[12]; monooleate 1.0%, nisin 0",63%
same,bactericidal activity towards L. monocytogenes (in words),"[12]; monooleate by itself, in milk",no bactericidal activity
